Measurements from US20250034197A1, “NUCLEOSIDE-DIPHOSPHATE-HEPTOSE COMPOUNDS FOR TREATING CONDITIONS ASSOCIATED WITH ALPK1 ACTIVITY” (PYROTECH (BEIJING) BIOTECHNOLOGY CO., LTD., priority 2021, published 2025).

Biological target: T1, ALPK1 (Homo sapiens, UniProt Q96QP1)
T1 construct: endogenous in cells; host or cells: 293T cells
Assay: NF-κB luciferase reporter assay in 293T cells (cellular assay)
Type: cell-based
Experimental: The compounds disclosed herein activate NF-κB through ALPK1-TIFA axis as determined by the NF-κB luciferase reporter and TIFA phosphorylation. For NF-κB luciferase assay, the plasmids (pNL2.2-BII-5RE-Luc), and control vector (pRL-TK) were transfected into 293T cells with the Jetprime reagents (Polyplus). NF-κB luciferase activity was determined using the dual luciferase assay kit (Promega) according to the manufacturer's instructions. TIFA phosphorylation upon the treatment with the compounds disclosed herein described in Table 1, were assayed with immunoblotting. Briefly, for the immunoblotting assay, the 293T cells were seeded in 12-well-plates and cultured for 16 h, and treated with indicated compounds for another 2 hours. Subsequently, the cells were collected and sampled as the regular western-blotting method, immunoblotted by the TIFA phosphorylation specific antibody (ab214815, Abcam).
The EC50 of the compounds disclosed herein were determined by the NF-κB luciferase reporter assay using 293T cells described supra. Compounds with indicated concentrations were added to the culture medium of 293T and the NF-κB luciferase activity was determined using the dual luciferase assay kit (Promega) according to the manufacturer's instructions. […] These chemical entities induce strong activation of the immune regulator NF-κB.

T1 sequence (Q96QP1 whole entry): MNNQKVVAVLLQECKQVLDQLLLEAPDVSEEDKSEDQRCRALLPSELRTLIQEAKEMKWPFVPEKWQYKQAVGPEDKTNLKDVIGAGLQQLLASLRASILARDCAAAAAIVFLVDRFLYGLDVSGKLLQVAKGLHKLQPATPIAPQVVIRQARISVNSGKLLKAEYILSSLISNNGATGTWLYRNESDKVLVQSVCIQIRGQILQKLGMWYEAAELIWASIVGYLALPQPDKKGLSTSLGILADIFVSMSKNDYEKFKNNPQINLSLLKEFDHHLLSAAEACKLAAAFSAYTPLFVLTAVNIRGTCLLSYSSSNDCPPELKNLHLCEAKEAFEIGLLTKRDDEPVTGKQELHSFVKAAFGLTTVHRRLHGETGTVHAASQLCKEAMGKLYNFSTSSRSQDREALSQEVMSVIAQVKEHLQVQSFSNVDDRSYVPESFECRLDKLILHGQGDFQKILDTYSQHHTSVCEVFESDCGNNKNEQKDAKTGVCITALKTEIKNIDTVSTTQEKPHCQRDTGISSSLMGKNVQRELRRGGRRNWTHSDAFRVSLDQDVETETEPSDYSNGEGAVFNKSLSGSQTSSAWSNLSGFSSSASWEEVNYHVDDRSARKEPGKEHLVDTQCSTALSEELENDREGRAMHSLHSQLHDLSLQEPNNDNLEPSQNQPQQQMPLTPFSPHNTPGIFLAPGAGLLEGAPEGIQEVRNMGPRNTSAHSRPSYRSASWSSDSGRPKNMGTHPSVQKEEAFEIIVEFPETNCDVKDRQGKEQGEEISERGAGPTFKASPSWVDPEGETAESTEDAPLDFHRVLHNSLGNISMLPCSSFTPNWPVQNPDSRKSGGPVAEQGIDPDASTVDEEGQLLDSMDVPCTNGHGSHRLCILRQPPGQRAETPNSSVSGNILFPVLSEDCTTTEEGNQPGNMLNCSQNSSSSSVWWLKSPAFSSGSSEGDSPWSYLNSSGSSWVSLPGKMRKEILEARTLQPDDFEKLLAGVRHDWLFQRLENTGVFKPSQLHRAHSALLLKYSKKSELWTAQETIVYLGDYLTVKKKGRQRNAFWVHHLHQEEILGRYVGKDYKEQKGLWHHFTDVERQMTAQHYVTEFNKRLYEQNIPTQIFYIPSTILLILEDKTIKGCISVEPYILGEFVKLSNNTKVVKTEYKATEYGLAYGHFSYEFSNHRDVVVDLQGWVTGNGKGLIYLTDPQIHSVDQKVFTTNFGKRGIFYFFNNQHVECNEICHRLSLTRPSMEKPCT

| Compound | EC50 [µM] |
| --- | --- |
| C=C=C[C@@]1(O)[C@H](O)[C@@H](COP(=O)(S)OP(=O)(O)OC2OC([C@H](COC(C)=O)OC(C)=O)C(OC(C)=O)C(OC(C)=O)C2OC(C)=O)O[C@H]1n1cnc2c(N)ncnc21 (stereo partly drawn) [Example 97C] | 1.06 |
| CC(=O)OC[C@H](OC(C)=O)C1OC(OP(=O)(O)OP(=O)(S)OC[C@H]2O[C@@H](n3cnc4c(N)ncnc43)[C@H](N3CCCC3)[C@@H]2O)C(OC(C)=O)C(OC(C)=O)C1OC(C)=O (stereo partly drawn) [Example 37C] | > 3 |
| Nc1ncnc2c1ncn2[C@@H]1O[C@H](COP(=O)(S)OP(=O)(O)OC2OC([C@@H](O)CO)C(O)C(O)C2O)[C@@H](O)[C@H]1N1CCCC1 (stereo partly drawn) [Example 37D] | > 3 |
| CC(=O)OC[C@H](OC(C)=O)C1OC(OP(=O)(O)OP(=O)(S)OC[C@H]2O[C@@H](n3ccc(=O)[nH]c3=O)[C@H](N(C)C)[C@@H]2O)C(OC(C)=O)C(OC(C)=O)C1OC(C)=O (stereo partly drawn) [Example 40C] | 0.431 |
| C#C[C@@]1(N=[N+]=[N-])[C@H](O)[C@@H](COP(=O)(S)OP(=O)(O)OC2OC([C@H](COC(C)=O)OC(C)=O)C(OC(C)=O)C(OC(C)=O)C2OC(C)=O)O[C@H]1n1ccc(=O)[nH]c1=O (stereo partly drawn) [Example 110C] | > 3 |
| C#C[C@]1(O)[C@H](O)[C@@H](COP(=O)(S)OP(=O)(O)OC2OC([C@H](COC(C)=O)OC(C)=O)C(OC(C)=O)C(OC(C)=O)C2OC(C)=O)O[C@H]1n1ccc(=O)[nH]c1=O (stereo partly drawn) [Example 26E] | > 3 |
| C#C[C@@]1(F)[C@H](O)[C@@H](COP(=O)(S)OP(=O)(O)OC2OC([C@H](COC(C)=O)OC(C)=O)C(OC(C)=O)C(OC(C)=O)C2OC(C)=O)O[C@H]1n1ccc(=O)[nH]c1=O (stereo partly drawn) [Example 22C] | 0.0491 |
| C=C[C@@]1(O)[C@H](O)[C@@H](COP(=O)(S)OP(=O)(O)OC2OC([C@@H](OC(C)=O)C(COC(C)=O)OC(C)=O)C(OC(C)=O)C(OC(C)=O)C2OC(C)=O)O[C@H]1n1cnc2c(N)ncnc21 (stereo partly drawn) [Example 321C] | > 1 |
| C#C[C@@]1(O)[C@H](O)[C@@H](COP(=O)(S)OP(=O)(O)OC2OC([C@H](COC(C)=O)OC(C)=O)C(OC(C)=O)C(OC(C)=O)C2OC(C)=O)O[C@H]1c1csc2c(N)ncnc12 (stereo partly drawn) [Example 264C] | 0.0483 |
| CC(=O)N[C@@H]1[C@H](O)[C@@H](COP(=O)(S)OP(=O)(O)OC2OC([C@H](COC(C)=O)OC(C)=O)C(OC(C)=O)C(OC(C)=O)C2OC(C)=O)O[C@H]1n1cnc2c(N)ncnc21 (stereo partly drawn) [Example 33E] | 0.433 |
| C=C[C@@]1(N=[N+]=[N-])[C@H](O)[C@@H](COP(=O)(S)OP(=O)(O)OC2OC([C@H](COC(C)=O)OC(C)=O)C(OC(C)=O)C(OC(C)=O)C2OC(C)=O)O[C@H]1n1ccc(=O)[nH]c1=O (stereo partly drawn) [Example 108C] | > 3 |
| CN[C@@H]1[C@H](O)[C@@H](COP(=O)(S)OP(=O)(O)OC2OC([C@H](COC(C)=O)OC(C)=O)C(OC(C)=O)C(OC(C)=O)C2OC(C)=O)O[C@H]1n1cnc2c(N)ncnc21 (stereo partly drawn) [Example 34C] | 0.345 |
| C=C=C[C@@]1(O)[C@H](O)[C@@H](COP(=O)(S)OP(=O)(O)OC2OC([C@@H](O)CO)C(O)C(O)C2O)O[C@H]1n1cnc2c(N)ncnc21 (single isomer, unassigned) [Example 97D] | > 1 |
| CC(=O)OC[C@H](OC(C)=O)C1OC(OP(=O)(O)OP(=O)(S)OC[C@H]2O[C@@H](n3cnc4c(N)ncnc43)[C@H](N3CCC3)[C@@H]2O)C(OC(C)=O)C(OC(C)=O)C1OC(C)=O (stereo partly drawn) [Example 36C] | 1.62 |
| C=C[C@@]1(O)[C@H](O)[C@@H](COP(=O)(OP(=O)(O)OC2OC([C@H](COC(C)=O)OC(C)=O)C(OC(C)=O)C(OC(C)=O)C2OC(C)=O)SCOC(=O)C(C)C)O[C@H]1n1cnc2c(N)ncnc21 (stereo partly drawn) [Example 31K] | 0.0576 |
| C=C[C@@]1(O)[C@H](O)[C@@H](COP(=O)(OP(=O)(O)OC2OC([C@H](COC(C)=O)OC(C)=O)C(OC(C)=O)C(OC(C)=O)C2OC(C)=O)SCOC(=O)OC(C)C)O[C@H]1n1cnc2c(N)ncnc21 (stereo partly drawn) [Example 31L] | 0.0138 |
| C#C[C@@]1(O)[C@H](O)[C@@H](COP(=O)(S)OP(=O)(O)OC2OC([C@H](COC(C)=O)OC(C)=O)C(OC(C)=O)C(OC(C)=O)C2OC(C)=O)O[C@H]1n1ccc(=O)[nH]c1=O (stereo partly drawn) [Example 26C] | 0.0455 |
| C=C=C[C@@]1(O)[C@H](O)[C@@H](COP(=O)(S)OP(=O)(O)OC2OC([C@H](COC(C)=O)OC(C)=O)C(OC(C)=O)C(OC(C)=O)C2OC(C)=O)O[C@H]1n1ccc(=O)[nH]c1=O (stereo partly drawn) [Example 98C] | 2.31 |
| C=C[C@@]1(O)[C@H](O)[C@@H](COP(=O)(S)OP(=O)(O)OC2OC([C@H](COC(C)=O)OC(C)=O)C(OC(C)=O)C(OC(C)=O)C2OC(C)=O)O[C@H]1c1csc2c(N)ncnc12 (stereo partly drawn) [Example 265C] | 0.0454 |
| CS[C@@H]1[C@H](O)[C@@H](COP(=O)(S)OP(=O)(O)OC2OC([C@@H](O)CO)C(O)C(O)C2O)O[C@H]1n1ccc(=O)[nH]c1=O (stereo partly drawn) [Example 262D] | 0.101 |
| C#C[C@@]1(O)[C@H](O)[C@@H](COP(=O)(S)OP(=O)(O)OC2OC([C@@H](F)COC(C)=O)C(OC(C)=O)C(OC(C)=O)C2OC(C)=O)O[C@H]1n1cnc2c(N)ncnc21 (stereo partly drawn) [Example 25A] | 0.244 |

Continued by falling EC50, values first:

| EC50 [µM] | Compound |
| --- | --- |
| 0.0402 | CC(=O)OC[C@H](OC(C)=O)C1OC(OP(=O)(O)OP(=O)(S)OC[C@H]2O[C@@H](n3cnc4c(N)ncnc43)[C@H](N)[C@@H]2O)C(OC(C)=O)C(OC(C)=O)C1OC(C)=O (stereo partly drawn) [Example 33C] |
| 0.0387 | CN(C)[C@@H]1[C@H](O)[C@@H](COP(=O)(S)OP(=O)(O)OC2OC([C@@H](O)CO)C(O)C(O)C2O)O[C@H]1n1cnc2c(N)ncnc21 (stereo partly drawn) [Example 35D] |
| 0.0363 | CS[C@@H]1[C@H](O)[C@@H](COP(=O)(S)OP(=O)(O)OC2OC([C@H](COC(C)=O)OC(C)=O)C(OC(C)=O)C(OC(C)=O)C2OC(C)=O)O[C@H]1n1ccc(=O)[nH]c1=O (stereo partly drawn) [Example 262C] |
| 0.0348 | C#C[C@@]1(OC)[C@H](O)[C@@H](COP(=O)(S)OP(=O)(O)OC2OC([C@H](COC(C)=O)OC(C)=O)C(OC(C)=O)C(OC(C)=O)C2OC(C)=O)O[C@H]1n1ccc(=O)[nH]c1=O (stereo partly drawn) [Example 95C] |
| 0.0342 | CC(=O)OC[C@H](F)C1OC(OP(=O)(O)O[P@@](=O)(S)OC[C@H]2O[C@@H](n3cnc4c(N)ncnc43)[C@H](N(C)C)[C@@H]2O)C(OC(C)=O)C(OC(C)=O)C1OC(C)=O (stereo partly drawn) [Example 35K] |
| 0.021 | C=C[C@@]1(O)[C@H](O)[C@@H](CO[P@](=O)(S)OP(=O)(O)OC2OC([C@H](COC(C)=O)OC(C)=O)C(OC(C)=O)C(OC(C)=O)C2OC(C)=O)O[C@H]1n1cnc2c(N)ncnc21 (single isomer, unassigned) [Example 31O] |
| 0.02 | C#C[C@@]1(O)[C@H](O)[C@@H](COP(=O)(S)OP(=O)(O)OC2OC([C@H](COC(C)=O)OC(C)=O)C(OC(C)=O)C(OC(C)=O)C2OC(C)=O)O[C@H]1n1cnc2c(N)ncnc21 (stereo partly drawn) [Example 25C] |
| 0.0169 | CC(=O)OC[C@H](OC(C)=O)C1OC(OP(=O)(O)O[P@@](=O)(S)OC[C@H]2O[C@@H](n3cnc4c(N)ncnc43)[C@H](N(C)C)[C@@H]2O)C(OC(C)=O)C(OC(C)=O)C1OC(C)=O (single isomer, unassigned) [Example 35G] |
| 0.0167 | CC(=O)OC[C@H](OC(C)=O)C1OC(OP(=O)(O)O[P@](=O)(S)OC[C@H]2O[C@@H](n3cnc4c(N)ncnc43)[C@H](N(C)C)[C@@H]2O)C(OC(C)=O)C(OC(C)=O)C1OC(C)=O (single isomer, unassigned) [Example 35H] |
| 0.0152 | C#C[C@@]1(F)[C@H](O)[C@@H](COP(=O)(S)OP(=O)(O)OC2OC([C@H](COC(C)=O)OC(C)=O)C(OC(C)=O)C(OC(C)=O)C2OC(C)=O)O[C@H]1n1cnc2c(N)ncnc21 (stereo partly drawn) [Example 21C] |
| 0.0109 | CN(C)[C@@H]1[C@H](O)[C@@H](CO[P@](=O)(S)OP(=O)(O)OC2OC([C@@H](O)CO)C(O)C(O)C2O)O[C@H]1n1cnc2c(N)ncnc21 (single isomer, unassigned) [Example 35I] |
| 0.00958 | C=C[C@@]1(OC)[C@H](O)[C@@H](COP(=O)(S)OP(=O)(O)OC2OC([C@H](COC(C)=O)OC(C)=O)C(OC(C)=O)C(OC(C)=O)C2OC(C)=O)O[C@H]1n1ccc(=O)[nH]c1=O (stereo partly drawn) [Example 45C] |
| 0.00777 | C=C[C@@]1(OC)[C@H](O)[C@@H](COP(=O)(S)OP(=O)(O)OC2OC([C@H](COC(C)=O)OC(C)=O)C(OC(C)=O)C(OC(C)=O)C2OC(C)=O)O[C@@H]1n1ccc(=O)[nH]c1=O (stereo in doubt) [Example 45E] |
| 0.00723 | C=C[C@@]1(O)[C@H](O)[C@@H](CO[P@@](=O)(S)OP(=O)(O)OC2OC([C@H](COC(C)=O)OC(C)=O)C(OC(C)=O)C(OC(C)=O)C2OC(C)=O)O[C@H]1n1cnc2c(N)ncnc21 (single isomer, unassigned) [Example 31P] |
| 0.00676 | CO[C@@H]1[C@H](O)[C@@H](COP(=O)(S)OP(=O)(O)OC2OC([C@H](COC(C)=O)OC(C)=O)C(OC(C)=O)C(OC(C)=O)C2OC(C)=O)O[C@H]1c1cnc2c(N)ncnn12 (stereo partly drawn) [Example 322C] |
| 0.00362 | C=C[C@@]1(O)[C@H](O)[C@@H](COP(=O)(S)OP(=O)(O)OC2OC([C@H](COC(C)=O)OC(C)=O)C(OC(C)=O)C(OC(C)=O)C2OC(C)=O)O[C@H]1c1cnn2c(N)ncnc12 (stereo partly drawn) [Example 128C] |
| 0.00289 | C=C[C@@]1(O)[C@H](O)[C@@H](COP(=O)(S)OP(=O)(O)OC2OC([C@H](COC(C)=O)OC(C)=O)C(OC(C)=O)C(OC(C)=O)C2OC(C)=O)O[C@H]1c1coc2c(N)ncnc12 (stereo partly drawn) [Example 125C] |
| 0.00015 | C=C[C@@]1(O)[C@H](O)[C@@H](COP(=O)(S)OP(=O)(O)OC2OC([C@H](COC(=O)CC)OC(C)=O)C(OC(C)=O)C(OC(C)=O)C2OC(C)=O)O[C@H]1n1cnc2c(N)ncnc21 (stereo partly drawn) [Example 31H] |
